Measured values from US20180099931A1 (AbbVie S.à.r.l., priority 2016, published 2018).
Read-outs that look alike come from different tables or passages of the source.

Biological target: T1, F508delCFTR (Homo sapiens, UniProt P13569, DEL508-508)
T1 construct: expressed in transfected cells; host or cells: CFBE41o- human lung-derived epithelial cells (CFBE4lo-F508delCFTR-HRP), doxycycline-inducible
Test: Cell Surface Expression-Horse Radish Peroxidase (CSE-HRP) Assay;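 on Maximum % activity (with co-corrector): co-corrector and positive control are both the same reference corrector at 2 µM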;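 on Maximum % activity (without co-corrector): percent of the 2 µM on-plate positive control corrector response above DMSO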
Format: cell-based
Conditions: for Maximum % activity (with co-corrector) / Emax: maximum at any tested concentration, normalized to on-plate positive control; for Emax: read-out: Maximum % activity (without co-corrector)

[1] = CSE-HRP, test compound without co-corrector, read-out: EC50 (without co-corrector)
[2] = CSE-HRP, with co-corrector (2 μM of 3-[(2R,4R)-4-({[1-(2,2-difluoro-1,3-benzodioxol-5-yl)cyclopropyl]carbonyl}amino)-7-methoxy-3,4-dihydro-2H-chromen-2-yl]benzoic acid), read-out: EC50 (with co-corrector)
[3] = CSE-HRP, with co-corrector (2 μM)
[4] = test compound without co-corrector
[5] = test compound without co-corrector, read-out: EC50 (without co-corrector)
[6] = with co-corrector (2 μM of 3-[(2R,4R)-4-({[1-(2,2-difluoro-1,3-benzodioxol-5-yl)cyclopropyl]carbonyl}amino)-7-methoxy-3,4-dihydro-2H-chromen-2-yl]benzoic acid)
[7] = with co-corrector (2 μM of 3-[(2R,4R)-4-({[1-(2,2-difluoro-1,3-benzodioxol-5-yl)cyclopropyl]carbonyl}amino)-7-methoxy-3,4-dihydro-2H-chromen-2-yl]benzoic acid), read-out: EC50 (with co-corrector)

T1 sequence (P13569 with tags, fused parts or gaps DEL508-508): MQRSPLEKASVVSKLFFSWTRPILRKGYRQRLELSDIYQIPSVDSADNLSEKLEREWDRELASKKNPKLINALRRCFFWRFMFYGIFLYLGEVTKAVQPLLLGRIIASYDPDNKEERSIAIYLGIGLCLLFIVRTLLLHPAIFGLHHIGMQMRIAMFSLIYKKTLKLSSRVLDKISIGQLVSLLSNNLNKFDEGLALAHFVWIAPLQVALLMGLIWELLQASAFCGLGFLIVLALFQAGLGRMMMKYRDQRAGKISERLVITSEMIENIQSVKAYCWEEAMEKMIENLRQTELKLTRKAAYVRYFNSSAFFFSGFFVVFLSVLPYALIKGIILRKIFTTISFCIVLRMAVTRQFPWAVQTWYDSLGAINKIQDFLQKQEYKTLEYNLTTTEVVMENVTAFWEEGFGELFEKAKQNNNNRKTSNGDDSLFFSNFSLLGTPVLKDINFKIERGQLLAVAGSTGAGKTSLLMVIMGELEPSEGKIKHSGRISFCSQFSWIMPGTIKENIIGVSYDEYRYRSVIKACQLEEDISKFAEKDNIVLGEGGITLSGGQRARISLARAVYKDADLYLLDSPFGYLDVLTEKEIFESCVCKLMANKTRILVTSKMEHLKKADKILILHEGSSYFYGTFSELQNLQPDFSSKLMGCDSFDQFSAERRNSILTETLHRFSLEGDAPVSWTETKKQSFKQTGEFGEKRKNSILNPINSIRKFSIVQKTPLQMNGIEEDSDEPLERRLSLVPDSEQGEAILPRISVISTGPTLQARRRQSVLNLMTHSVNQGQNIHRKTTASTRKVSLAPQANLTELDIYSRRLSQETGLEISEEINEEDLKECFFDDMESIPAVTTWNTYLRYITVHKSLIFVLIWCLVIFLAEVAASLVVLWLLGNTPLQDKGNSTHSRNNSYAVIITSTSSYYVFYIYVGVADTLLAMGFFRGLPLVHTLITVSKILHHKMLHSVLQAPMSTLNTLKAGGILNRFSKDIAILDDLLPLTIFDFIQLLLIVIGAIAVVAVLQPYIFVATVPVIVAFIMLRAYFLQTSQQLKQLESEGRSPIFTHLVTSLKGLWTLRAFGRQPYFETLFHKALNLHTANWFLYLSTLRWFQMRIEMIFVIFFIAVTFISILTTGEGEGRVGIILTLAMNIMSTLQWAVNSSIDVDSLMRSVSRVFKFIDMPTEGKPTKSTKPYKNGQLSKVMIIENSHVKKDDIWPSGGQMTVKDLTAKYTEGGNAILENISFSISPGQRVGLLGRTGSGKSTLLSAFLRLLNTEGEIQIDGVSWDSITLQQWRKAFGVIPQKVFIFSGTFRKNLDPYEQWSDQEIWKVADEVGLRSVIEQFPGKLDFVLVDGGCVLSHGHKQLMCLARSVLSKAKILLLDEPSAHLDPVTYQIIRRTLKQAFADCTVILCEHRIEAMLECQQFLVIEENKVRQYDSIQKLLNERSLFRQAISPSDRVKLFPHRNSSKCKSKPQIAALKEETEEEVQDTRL

Structure (SMILES)	EC50 [1] [µM]	EC50 [2] [µM]	Maximum % activity (with co-corrector) [3]	Emax (CSE-HRP, without co-corrector) [%]	Emax [4] [%]	EC50 [5] [µM]	Maximum % activity (with co-corrector) [6]	EC50 [7] [µM]	Maximum % activity (with co-corrector) (with co-corrector (2 μM))	Emax (without co-corrector) [%]
COc1ccc(C(F)(F)F)cc1CN[C@H]1[C@H](C(C)(C)C)[C@@H](C(=O)O)N(C(=O)C2CCCCC2)[C@H]1c1cccnc1C [II-93]	1 to 10	1 to 10	+++ (≥350)	100 to 200	–	–	–	–	–	–
COc1ccc(C(C)(C)C)cc1CN[C@H]1[C@H](C(C)(C)C)[C@@H](C(=O)O)N(C(=O)C2CCC(C(F)(F)F)CC2)[C@H]1c1ccccc1 (some centres unmarked) [II-374]	–	–	–	–	100 to 200	1 to 10	+++ (≥350)	< 1	–	–
COc1ccc(C(C)(C)C)cc1CN[C@H]1[C@H](C(C)(C)C)[C@@H](C(=O)O)N(C(=O)C2CCCS2(=O)=O)[C@H]1c1ccccc1 (some centres unmarked) [Example I-192]	–	–	–	–	–	1 to 10	–	1 to 10	+++ (≥350)	100 to 200
COc1cc(C(F)(F)F)ccc1CN[C@@H]1[C@@H](C(C)(C)C)[C@H](C(=O)O)N(C(=O)C2CCCOC2)[C@@H]1c1ccccc1N(C)C (mixture of isomers) [II-22]	1 to 10	1 to 10	+++ (≥350)	100 to 200	–	–	–	–	–	–
COc1ccc(C(C)(C)C)cc1CN[C@H]1[C@H](C(C)(C)C)[C@@H](C(=O)O)N(C(=O)C2CCCCO2)[C@H]1c1ccccc1 (relative stereo) [Example I-193]	–	–	–	–	–	1 to 10	–	1 to 10	+++ (≥350)	> 200
COc1ccc(C(C)(C)C)cc1CN[C@H]1[C@H](C(C)(C)OC)[C@@H](C(=O)O)N(C(=O)C2CCCCC2)[C@H]1c1ccccc1OC [II-294]	1 to 10	1 to 10	+++ (≥350)	> 200	–	–	–	–	–	–
COc1ccc(C(C)(C)C)cc1CN[C@H]1[C@H](C(C)(C)C)[C@@H](C(=O)O)N(C(=O)CC2C=CCCC2)[C@H]1c1ccccc1 (some centres unmarked) [II-212]	1 to 10	1 to 10	+++ (≥350)	> 200	–	–	–	–	–	–
COc1ncc(C(F)(F)F)cc1CN[C@H]1[C@H](C(C)(C)C)[C@@H](C(=O)O)N(C(=O)[C@@H]2CCCO2)[C@H]1c1ccccc1Br [Example I-292]	1 to 10	< 1	+++ (≥350)	100 to 200	–	–	–	–	–	–
COc1ccc(C(C)(C)C)cc1CN[C@H]1[C@H](C(C)(C)C)[C@@H](C(=O)O)N(C(=O)[C@H](C)c2ccccc2)[C@H]1c1cccnc1N(C)C [Example I-233]	–	–	–	–	–	1 to 10	–	1 to 10	+++ (≥350)	100 to 200
COc1ccc(C(F)(F)F)cc1CN[C@H]1[C@H](C(C)(C)C)[C@@H](C(=O)O)N(C(=O)C2CCc3cc(C)ccc3O2)[C@H]1c1ccccc1 (some centres unmarked) [II-397]	–	–	–	–	100 to 200	1 to 10	+++ (≥350)	< 1	–	–
COc1cc(Cl)nc(N[C@@H]2[C@@H](C(C)(C)C)[C@H](C(=O)O)N(C(=O)C3CCCCC3)[C@@H]2c2ccccc2)n1 (racemic) [Example I-2]	–	–	–	–	–	1 to 10	–	1 to 10	+++ (≥350)	< 100
COc1ncc(C(F)(F)F)cc1CN[C@H]1[C@H](C(C)(C)C)[C@@H](C(=O)O)N(C(=O)OC(C)C)[C@H]1c1ccccc1C1CC1 [Example 91, (2S,3S,4S,5S)-3-tert-butyl-5-(2-cyclopropylphenyl)-4-({[2-methoxy-5-(trifluoromethyl)pyridin-3-yl]methyl}amino)-1-{[(propan-2-yl)oxy]carbonyl}pyrrolidine-2-carboxylic acid]	–	–	–	–	–	< 1	–	< 1	+++ (≥350)	> 200
COc1ccc(-c2cccnc2)cc1CN[C@H]1[C@H](C(C)(C)C)[C@@H](C(=O)O)N(C(=O)C2CCCCC2)[C@H]1c1ccccc1 [II-284]	1 to 10	1 to 10	+++ (≥350)	< 100	–	–	–	–	–	–
COc1ccc(C(C)(C)C)cc1CN[C@H]1[C@H](C(C)(C)C)[C@@H](C(=O)O)N(C(=O)C(C)Sc2ccccc2)[C@H]1c1ccccc1 (some centres unmarked) [II-325]	–	–	–	–	> 200	< 1	+++ (≥350)	< 1	–	–
COc1ccc(C(C)(C)C)cc1CN[C@H]1[C@H](C(C)(C)C)[C@@H](C(=O)O)N(C(=O)C(OC)C2CC2)[C@H]1c1ccccc1 (single isomer, unassigned) [Example I-96]	–	–	–	–	–	1 to 10	–	–	+++ (≥350)	–
COc1ncc(C(F)(F)F)cc1N[C@H]1[C@H](C(C)(C)C)[C@@H](C(=O)O)N(C(=O)[C@@H]2CCCCO2)[C@H]1c1cccnc1N(C)C [Example I-215]	–	–	–	–	–	> 10	–	1 to 10	++ (≥150 and <350)	< 100
COc1ccccc1CN[C@@H]1[C@@H](C(C)(C)C)[C@H](C(=O)O)N(C(=O)OC(C)C)[C@@H]1c1ccccc1 (racemic) [II-46]	1 to 10	1 to 10	+++ (≥350)	100 to 200	–	–	–	–	–	–
COc1ncc(C(F)(F)F)cc1CN[C@H]1[C@H](C(C)(C)C)[C@@H](C(=O)O)N(C(=O)C2CCC2)[C@H]1c1ccccc1C(F)(F)F [Example I-280]	1 to 10	1 to 10	++ (≥150 and <350)	< 100	–	–	–	–	–	–

Other lines, results leading:

EC50 [1] [µM]	EC50 [2] [µM]	Maximum % activity (with co-corrector) [3]	Emax (CSE-HRP, without co-corrector) [%]	Emax [4] [%]	EC50 [5] [µM]	Maximum % activity (with co-corrector) [6]	EC50 [7] [µM]	Maximum % activity (with co-corrector) (with co-corrector (2 μM))	Emax (without co-corrector) [%]	Structure (SMILES)
–	–	–	–	> 200	1 to 10	+++ (≥350)	< 1	–	–	COc1ccc(C(C)(C)C)cc1CN[C@H]1[C@H](C(C)(C)C)[C@@H](C(=O)O)N(C(=O)[C@@H]2[C@H](C(F)(F)F)[C@@H]3CC[C@H]2O3)[C@H]1c1cccnc1N(C)C (relative stereo) [II-473]
–	–	–	–	100 to 200	1 to 10	+++ (≥350)	1 to 10	–	–	COc1cc(C(F)(F)F)ccc1CN[C@H]1[C@H](C(C)(C)C)[C@@H](C(=O)O)N(C(=O)[C@@H]2CCC[C@H](O)C2)[C@H]1c1ccccc1 [II-538]
–	–	–	–	< 100	> 10	–	1 to 10	++ (≥150 and <350)	–	CC(C)(C)[C@H]1[C@H](NCc2ccc(C#N)cc2F)[C@H](c2ccccc2)N(C(=O)C2CCCCC2)[C@@H]1C(=O)O [III-121]
–	–	–	–	> 200	1 to 10	+++ (≥350)	1 to 10	–	–	COc1ccc(C(C)(C)C)cc1CN[C@H]1[C@H](C(C)(C)OC)[C@@H](C(=O)O)N(C(=O)OC(C)C)[C@H]1c1ccccc1 [II-419]
–	–	–	–	> 200	1 to 10	–	< 1	+++ (≥350)	–	COc1ccc(C(C)(C)C)cc1CN[C@H]1[C@H](C(C)(C)C)[C@@H](C(=O)O)N(C(=O)C2CCCC(C(F)(F)F)C2)[C@H]1c1cccnc1N(C)C (some centres unmarked) [III-206]
–	–	–	–	100 to 200	1 to 10	+++ (≥350)	1 to 10	–	–	COc1ccc(C(C)(C)C)cc1CN[C@H]1[C@H](C(C)(C)C)[C@@H](C(=O)O)N(C(=O)OC(C)C)[C@H]1c1cccnc1OC [II-511]
–	–	–	–	> 200	1 to 10	+++ (≥350)	< 1	–	–	COc1cc(C(F)(F)F)ccc1CN[C@H]1[C@H](C(C)(C)C)[C@@H](C(=O)O)N(C(=O)OC(C)C)[C@H]1c1ccccc1C(C)C [II-561]
–	–	–	–	< 100	1 to 10	–	1 to 10	+++ (≥350)	–	Cc1cc(C)c(C#N)c(N[C@H]2[C@H](C(C)(C)C)[C@@H](C(=O)O)N(C(=O)C3CCCCC3)[C@H]2c2ccccc2)n1 [III-148]
–	–	–	–	< 100	1 to 10	++ (≥150 and <350)	1 to 10	–	–	COc1cc(Cl)ccc1CN[C@@H]1[C@@H](C(C)(C)C)[C@H](C(=O)O)N(C(=O)C2CCCCC2)[C@@H]1c1ccccn1 (racemic) [III-82]
–	–	–	–	> 200	1 to 10	+++ (≥350)	1 to 10	–	–	COc1ccc(C2(C)CCC2)cc1CN[C@H]1[C@H](C(C)(C)C)[C@@H](C(=O)O)N(C(=O)[C@@H]2CCCCO2)[C@H]1c1ccccc1F [II-546]
–	–	–	–	> 200	< 1	+++ (≥350)	< 1	–	–	COc1nc(C(C)(C)C)ccc1CN[C@H]1[C@H](C(C)(C)C)[C@@H](C(=O)O)N(C(=O)Cc2ccccc2C)[C@H]1c1ccccc1C(C)C [II-427]
–	–	–	–	100 to 200	1 to 10	+++ (≥350)	1 to 10	–	–	COc1ncc(C(F)(F)F)cc1CN[C@H]1[C@H](C(C)(C)C)[C@@H](C(=O)O)N(C(=O)OC(C)C)[C@H]1c1cccnc1OC [II-512]
–	–	–	–	> 200	< 1	–	< 1	+++ (≥350)	–	COc1ccc(C(C)(C)C)cc1CN[C@@H]1[C@@H](C(C)(C)C)[C@H](C(=O)O)N(C(=O)C2CCCCC2)[C@@H]1c1ccccc1 (racemic) [III-107]
